These results are taken from patent EP4671251A1, “SALTS OF COMPOUNDS, CRYSTAL FORMS THEREOF, PREPARATION METHOD THEREFOR AND USE THEREOF” (TenNor Therapeutics (Suzhou) Limited, priority 2023, dated 2024).

In brackets after ≈: the same amount, converted by molar mass. Counter-ions that a name gives are not always drawn. Like-named read-outs stand apart in the source and are kept apart here. Where only a bound is given, the exact number is not on record here.

Format in all cases: physicochemical
Data set [1] in a line: Acceleration stability test at 40 °C and 75% humidity, one month. Here is the method: The commercially available amorphous form of rifabutin and the crystal forms V and VI of the present application were separately placed in a constant-temperature and constant-humidity incubator at 40 °C and 75% humidity for acceleration test. After one month, the change in purity was determined.

The nature of data set [2]: Approximate solubility of the starting free base at room temperature. The following applies: room temperature (about 25 °C). How it is done:
The approximate solubility of the starting free base of the exemplary compound of formula (II) in 5 single solvents and 9 mixed solvents at room temperature (about 25 °C) was also tested. Table 1. Approximate solubility (mg/mL) of the starting free base at room temperature

A short description of data set [3]: Stability test, open conditions at 25 °C/60% RH and 40 °C/75% RH for 3 days. The note with it: for Change in appearance / Change in crystal form / Purity: 3 days. Here is the method: Samples were separately taken from two crystal forms I and II of the monotriphenylacetate salt of the exemplary compound of formula (II) and left to stand in open conditions at 25 °C/60% RH and 40 °C/75% RH for 3 days.
Table 4. Summary of stability study data

The nature of data set [4]: Hygroscopicity test (dynamic vapor sorption, DVS). An excerpt: The DVS results of the crystal form I (FIG. 12A) show slow weight gains from 0 to 60% RH and 70% RH to 95% RH, and a rapid weight gain from 60% RH to 70% RH.
Data set [5] is described as follows: Kinetic solubility in water and four biological media at 37 °C. The note with it: for S: Solubility / solubility at 1 h / solubility at 4 h / solubility at 24 h: about 10 mg/mL sample added; for S: Solubility: LOQ = 0.099 µg/mL; for solubility at 1 h / solubility at 4 h / solubility at 24 h: read-out: S: Solubility; for FC: change in appearance: solid by XRPD; for pH: supernatant. How it is done:
About 10 mg/mL of sample (on a free base basis) was added to various biological media. After shaking at 100 rpm at 37 °C (for 1/4/24 h), samples 01-05 were centrifuged, and the solids were collected for XRPD test, while the supernatant was used for detection and pH measurement.
Table 9. Kinetic solubility of crystal form I in water and four biological media at 37 °C (mg/mL)

For the compound `CO[C@H]1/C=C/O[C@@]2(C)Oc3c(C)c(O)c4c(c3C2=O)C2=NC3(CCN(CC(C)C)CC3)NC2=C(NC(=O)/C(C)=C\C=C\[C@H](C)[C@H](O)[C@@H](C)[C@@H](O)[C@@H](C)[C@H](OC(C)=O)[C@@H]1C)C4=O` [amorphous product of rifabutin, rifabutin], in data set [1] (after one month at 40 °C and 75% humidity), the Purity worked out at 95.54%. Also, the “purity of the original sample” value in data set [1] (original sample, before storage) turned out to be 95.9%.
Broadly, the solubility is the dissolved amount per volume that the medium holds. Take `CO[C@H]1/C=C/O[C@@]2(C)Oc3c(C)c(O)c4c(c3C2=O)C2=NC3(CCN(CCn5c([N+](=O)[O-])cnc5C)CC3)NC2=C(NC(=O)/C(C)=C\C=C\[C@H](C)[C@H](O)[C@@H](C)[C@@H](O)[C@@H](C)[C@H](OC(C)=O)[C@@H]1C)C4=O` [starting free base]: the solubility in data set [2] (2-MeTHF) is above 41400 µg/mL; in data set [2] (2-MeTHF:MTBE (1:1) v:v), above 42400 µg/mL; in data set [2] (EtOAc), above 40800 µg/mL; in data set [2] (EtOAc:MTBE (1:1) v:v) it was above 41400 µg/mL; in data set [2] (IPA), above 39200 µg/mL; in data set [2] (IPA:H2O (1:1) v:v) it was 20500 to 41000 µg/mL (≈ 21.7 to 43.4 mM). Moreover, the solubility in data set [2] (IPA:H2O (3:1) v:v) was above 41200 µg/mL; in data set [2] (IPA:H2O (5:1) v:v), above 41200 µg/mL; in data set [2] (IPA:H2O (9:1) v:v), above 41400 µg/mL; in data set [2] (IPA:H2O (19:1) v:v), above 42200 µg/mL; in data set [2] (IPA:n-Heptane (1:1) v:v), 20700 to 41400 µg/mL (≈ 21.9 to 43.9 mM); in data set [2] (MTBE) it was 6700 to 20100 µg/mL (≈ 7.1 to 21.3 mM). Besides, the solubility was above 41400 µg/mL in data set [2] (Toluene) and above 42400 µg/mL in data set [2] (Toluene:MTBE (1:1) v:v).
Regarding `CO[C@H]1/C=C/O[C@@]2(C)Oc3c(C)c(O)c4c(c3C2=O)C2=NC3(CCN(CCn5c([N+](=O)[O-])cnc5C)CC3)NC2=C(NC(=O)/C(C)=C\C=C\[C@H](C)[C@H](O)[C@@H](C)[C@@H](O)[C@@H](C)[C@H](OC(C)=O)[C@@H]1C)C4=O` [Crystal form I of triphenylacetate salt], the Change in appearance result in data set [3] (25 °C/60% RH Open) and in data set [3] (40 °C/75% RH Open) was “No change” in each case. Further, the “Change in crystal form” value in data set [3] (25 °C/60% RH Open) and in data set [3] (40 °C/75% RH Open) was “No change” throughout. Besides, the Purity is 98.09 Area% in data set [3] (25 °C/60% RH Open) and 98.22 Area% in data set [3] (40 °C/75% RH Open). Moreover, in data set [3] (starting sample, before storage), the “Starting sample Purity” value stood at 97.23 Area%. Also, in data set [4] (25 °C/80% RH (relative to 0% RH), about 1 H2O), the water absorption was 1.5%. The hygroscopicity entry in data set [4] (DVS, 25 °C/80% RH) was “slightly hygroscopic”. For the same compound, the “change in appearance of crystal form before/after DVS evaluation (XRPD)” value in data set [4] (before/after DVS) is “no change”. In addition, the “S: Solubility” value in data set [5] (Water, 1 h) was “<LOQ”; in data set [5] (Water, 4 h), “<LOQ”; in data set [5] (Water, 24 h) it was “<LOQ”. The solubility at 1 h was found to be 1300 µg/mL in data set [5] (fassgf, pH 1.6, FaSSGF (1.6), 1 h); 12 µg/mL in data set [5] (fassif, pH 6.5, FaSSIF (6.5), 1 h); 120 µg/mL in data set [5] (fessgf, pH 5, FeSSGF (5.0), 1 h); 120 µg/mL in data set [5] (fessif, pH 5, FeSSIF (5.0), 1 h). Also, the solubility at 4 h in data set [5] (fassgf, pH 1.6, FaSSGF (1.6), 4 h) was found to be 1600 µg/mL; in data set [5] (fassif, pH 6.5, FaSSIF (6.5), 4 h), 5.7 µg/mL; in data set [5] (fessgf, pH 5, FeSSGF (5.0), 4 h) it was 180 µg/mL; in data set [5] (fessif, pH 5, FeSSIF (5.0), 4 h), 120 µg/mL. For the same compound, the solubility at 24 h in data set [5] (fassgf, pH 1.6, FaSSGF (1.6), 24 h) is around 1600 µg/mL; in data set [5] (fassif, pH 6.5, FaSSIF (6.5), 24 h), 7.5 µg/mL; in data set [5] (fessgf, pH 5, FeSSGF (5.0), 24 h) it was 220 µg/mL; in data set [5] (fessif, pH 5, FeSSIF (5.0), 24 h) it was 140 µg/mL. Further, the “FC: change in appearance” value is “No” in data set [5] (FaSSGF (1.6), 1 h); “No” in data set [5] (FaSSGF (1.6), 4 h); “No” in data set [5] (FaSSGF (1.6), 24 h); “No” in data set [5] (FaSSIF (6.5), 1 h); “No” in data set [5] (FaSSIF (6.5), 4 h); “No” in data set [5] (FaSSIF (6.5), 24 h). The “FC: change in appearance” value is reported as “No” in data set [5] (FeSSGF (5.0), 1 h); “No” in data set [5] (FeSSGF (5.0), 4 h); “No” in data set [5] (FeSSGF (5.0), 24 h); “No” in data set [5] (FeSSIF (5.0), 1 h); “No” in data set [5] (FeSSIF (5.0), 4 h); “No” in data set [5] (FeSSIF (5.0), 24 h). Further, the “FC: change in appearance” value in data set [5] (Water, 1 h) was “No”; in data set [5] (Water, 4 h) it was “No”; in data set [5] (Water, 24 h) it was “No”. For the same compound, the pH is 1.55 in data set [5] (FaSSGF (1.6), 1 h); 1.57 in data set [5] (FaSSGF (1.6), 4 h); 1.54 in data set [5] (FaSSGF (1.6), 24 h); 6.37 in data set [5] (FaSSIF (6.5), 1 h); 6.37 in data set [5] (FaSSIF (6.5), 4 h); 6.40 in data set [5] (FaSSIF (6.5), 24 h). Further, the pH amounted to 5.03 in data set [5] (FeSSGF (5.0), 1 h); 5.07 in data set [5] (FeSSGF (5.0), 4 h); 5.07 in data set [5] (FeSSGF (5.0), 24 h); 4.85 in data set [5] (FeSSIF (5.0), 1 h); 4.84 in data set [5] (FeSSIF (5.0), 4 h); 4.84 in data set [5] (FeSSIF (5.0), 24 h). Further, the pH in data set [5] (Water, 1 h) is given as 4.45; in data set [5] (Water, 4 h), 4.44; in data set [5] (Water, 24 h), 4.62.
